# Test results reported in PubChem BioAssay AID2060623 (Molecular Pharmacology Branch, DTP, NCI, 2025).
# Test system: 227483-062-R1-J1-PDC complex spheroids with HUVEC/MSC, viability
# Test: Anticancer human tumor 227483-062-R1-J1-PDC patient-derived pancreatic carcinoma cell line growth inhibition [CLK]
# Conditions: for IC50: curve of first compound; for viability, T/C: stronger effect = lower value
# Outline: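 Multi-cell-type spheroids combined patient-derived tumor cells with HUVEC endothelial cells and human mesenchymal stem cells. Paired agents were dosed in half-log steps down from about clinical Cmax, or from 10 microM where Cmax was unknown.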
# 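Further: spheroids exposed to compounds for seven days before readout.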
# 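Wherever viability, T/C is given: percent of DMSO vehicle control luminescence as 100% viability.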
smiles,measurement,setting,value
CC(C)CC(NC(=O)C(Cc1ccccc1)NC(=O)c1cnccn1)B(O)O (centres undefined) + CN1CCN(c2cc(C(=O)Nc3cc4cc(-c5cnn(C)c5)ccc4cn3)ccn2)CC1,IC50,second compound 0.0316 µM,1.54 nM
same,IC50,second compound 0.1 µM,1.02 nM
same,IC50,second compound 0.316 µM,< 0.949 nM
same,IC50,second compound 1 µM,< 0.949 nM
same,IC50,second compound 3.16 µM,< 0.949 nM
same,IC50,second compound 10 µM,< 0.949 nM
same,"viability, T/C","second compound 0.0316 µM, first compound 0.000949 µM",84.2%
same,"viability, T/C","second compound 0.0316 µM, first compound 0.003 µM",2.58%
same,"viability, T/C","second compound 0.0316 µM, first compound 0.00949 µM",0.65%
same,"viability, T/C","second compound 0.0316 µM, first compound 0.03 µM",1.12%
same,"viability, T/C","second compound 0.0316 µM, first compound 0.0949 µM",0.45%
same,"viability, T/C","second compound 0.0316 µM, first compound 0.3 µM",0.74%
same,"viability, T/C","second compound 0.1 µM, first compound 0.000949 µM",53.2%
same,"viability, T/C","second compound 0.1 µM, first compound 0.003 µM",2.83%
same,"viability, T/C","second compound 0.1 µM, first compound 0.00949 µM",1.48%
same,"viability, T/C","second compound 0.1 µM, first compound 0.03 µM",5.65%
same,"viability, T/C","second compound 0.1 µM, first compound 0.0949 µM",0.4%
same,"viability, T/C","second compound 0.1 µM, first compound 0.3 µM",0.25%
same,"viability, T/C","second compound 0.316 µM, first compound 0.000949 µM",2.47%
same,"viability, T/C","second compound 0.316 µM, first compound 0.003 µM",3.26%
same,"viability, T/C","second compound 0.316 µM, first compound 0.00949 µM",0.59%
same,"viability, T/C","second compound 0.316 µM, first compound 0.03 µM",0.21%
same,"viability, T/C","second compound 0.316 µM, first compound 0.0949 µM",0.29%
same,"viability, T/C","second compound 0.316 µM, first compound 0.3 µM",0.75%
same,"viability, T/C","second compound 1 µM, first compound 0.000949 µM",3.27%
same,"viability, T/C","second compound 1 µM, first compound 0.003 µM",1.6%
same,"viability, T/C","second compound 1 µM, first compound 0.00949 µM",0.47%
same,"viability, T/C","second compound 1 µM, first compound 0.03 µM",2.61%
same,"viability, T/C","second compound 1 µM, first compound 0.0949 µM",0.34%
same,"viability, T/C","second compound 1 µM, first compound 0.3 µM",0.4%
same,"viability, T/C","second compound 3.16 µM, first compound 0.000949 µM",5.84%
same,"viability, T/C","second compound 3.16 µM, first compound 0.003 µM",2.27%
same,"viability, T/C","second compound 3.16 µM, first compound 0.00949 µM",1.43%
same,"viability, T/C","second compound 3.16 µM, first compound 0.03 µM",0.39%
same,"viability, T/C","second compound 3.16 µM, first compound 0.0949 µM",0.63%
same,"viability, T/C","second compound 3.16 µM, first compound 0.3 µM",1.73%
same,"viability, T/C","second compound 10 µM, first compound 0.000949 µM",3.7%
same,"viability, T/C","second compound 10 µM, first compound 0.003 µM",1.18%
same,"viability, T/C","second compound 10 µM, first compound 0.00949 µM",0.37%
same,"viability, T/C","second compound 10 µM, first compound 0.03 µM",1%
same,"viability, T/C","second compound 10 µM, first compound 0.0949 µM",0.3%
same,"viability, T/C","second compound 10 µM, first compound 0.3 µM",0.21%
O=C(c1cc(Cc2n[nH]c(=O)c3ccccc23)ccc1F)N1CCN(C(=O)C2CC2)CC1 + CN1CCN(c2cc(C(=O)Nc3cc4cc(-c5cnn(C)c5)ccc4cn3)ccn2)CC1,IC50,second compound 0.0316 µM,> 10000 nM
same,IC50,second compound 0.1 µM,> 10000 nM
same,IC50,second compound 0.316 µM,< 31.6 nM
same,IC50,second compound 1 µM,< 31.6 nM
same,IC50,second compound 3.16 µM,< 31.6 nM
same,IC50,second compound 10 µM,< 31.6 nM
same,"viability, T/C","second compound 0.0316 µM, first compound 0.0316 µM",94.6%
same,"viability, T/C","second compound 0.0316 µM, first compound 0.1 µM",105%
same,"viability, T/C","second compound 0.0316 µM, first compound 0.316 µM",129%
same,"viability, T/C","second compound 0.0316 µM, first compound 1 µM",100%
same,"viability, T/C","second compound 0.0316 µM, first compound 3.16 µM",121%
same,"viability, T/C","second compound 0.0316 µM, first compound 10 µM",99.7%
same,"viability, T/C","second compound 0.1 µM, first compound 0.0316 µM",54.3%
same,"viability, T/C","second compound 0.1 µM, first compound 0.1 µM",87.4%
same,"viability, T/C","second compound 0.1 µM, first compound 0.316 µM",60.1%
same,"viability, T/C","second compound 0.1 µM, first compound 1 µM",81.2%
same,"viability, T/C","second compound 0.1 µM, first compound 3.16 µM",84.4%
same,"viability, T/C","second compound 0.1 µM, first compound 10 µM",78.9%
same,"viability, T/C","second compound 0.316 µM, first compound 0.0316 µM",6.03%
same,"viability, T/C","second compound 0.316 µM, first compound 0.1 µM",6.34%
same,"viability, T/C","second compound 0.316 µM, first compound 0.316 µM",4.67%
same,"viability, T/C","second compound 0.316 µM, first compound 1 µM",4.91%
same,"viability, T/C","second compound 0.316 µM, first compound 3.16 µM",5.89%
same,"viability, T/C","second compound 0.316 µM, first compound 10 µM",5.77%
same,"viability, T/C","second compound 1 µM, first compound 0.0316 µM",2.77%
same,"viability, T/C","second compound 1 µM, first compound 0.1 µM",1.94%
same,"viability, T/C","second compound 1 µM, first compound 0.316 µM",1.82%
same,"viability, T/C","second compound 1 µM, first compound 1 µM",2.7%
same,"viability, T/C","second compound 1 µM, first compound 3.16 µM",2.26%
same,"viability, T/C","second compound 1 µM, first compound 10 µM",1.69%
same,"viability, T/C","second compound 3.16 µM, first compound 0.0316 µM",7.27%
same,"viability, T/C","second compound 3.16 µM, first compound 0.1 µM",3.78%
same,"viability, T/C","second compound 3.16 µM, first compound 0.316 µM",4.39%
same,"viability, T/C","second compound 3.16 µM, first compound 1 µM",2.51%
same,"viability, T/C","second compound 3.16 µM, first compound 3.16 µM",4.57%
same,"viability, T/C","second compound 3.16 µM, first compound 10 µM",3.8%
same,"viability, T/C","second compound 10 µM, first compound 0.0316 µM",4.72%
same,"viability, T/C","second compound 10 µM, first compound 0.1 µM",2.86%
same,"viability, T/C","second compound 10 µM, first compound 0.316 µM",2.33%
same,"viability, T/C","second compound 10 µM, first compound 1 µM",2.8%
same,"viability, T/C","second compound 10 µM, first compound 3.16 µM",2.43%
same,"viability, T/C","second compound 10 µM, first compound 10 µM",2.26%
